According to US11174301B2 (Takeda Pharmaceutical Company Limited, priority 2017, dated 2021):

Columns and labels:
Type in all cases: in vivo
C57BL/6J mice [1] = test: Oral glucose tolerance test (1); conditions: 0.03 nmol/kg, s.c. 30 minutes before glucose loading, control group = 100; for Rate of increase in blood glucose level (%) 30 min: 30 minutes after oral glucose; for Rate of increase in blood glucose level (%) 60 min: 60 minutes after oral glucose
Description: Oral Glucose Tolerance Test (1)
An oral glucose tolerance test (OGTT) was carried out using C57BL/6J mice with a […].

beagles = test: PYY-1119-induced vomiting in dogs; conditions: for Frequency of vomiting: 2-hour observation
male C57BL/6J mice = test: Conditioned taste aversion test in mice (PYY-1119-induced)
Description: Test Example 3: Conditioned Taste Aversion Test in Mice (FIG. 1A, FIG. 1B)
Additionally, the test compound or a solvent is subcutaneously administered simultaneously with PYY-1119.
On day 2, only a solvent is administered 10 minutes after presenting tap water.
On day 4, only tap water is presented.
On day 5, a test of selection from the bottles of saccharine water and tap water is carried out and preferential selection of saccharine water is evaluated.

ferrets [2] = test: Cisplatin-induced acute vomiting model in ferrets
Description: Test Example 4: Vomiting Suppression Test in Ferrets
The ferret test was carried out by Nissei Bilis Co., Ltd. (Shiga prefecture, Japan). Cisplatin (10 mg/kg i.p.) was administered to male ferrets (10-week-old, n=6) to induce acute vomiting. […] The frequency of emesis (feeling queasy, vomiting) was monitored over a period of 8 hours after cisplatin administration.
Up to 6 hours after cisplatin administration, the condition of the ferrets was monitored to record the frequencies and time points of abdominal contraction motions and vomiting behaviors occurring.

ferrets [3] = test: Morphine-induced acute emetic model in ferrets; conditions: for Morphine-induced emesis: 1 nmol/kg s.c. 30 minutes before morphine (0.6 mg/kg, s.c.); for Ferrets in which the vomiting symptom was observed: 30 nmol/kg s.c., morphine 0.6 mg/kg s.c. 4 hours after administration, monitored 60 minutes, FIG. 6A; for Ferrets in which the vomiting symptom was observed / Vomiting symptom, morphine 120 hours after administration: n=4; for Vomiting symptom, morphine 120 hours after administration: 144 μg/kg (30 nmol/kg) s.c., morphine 0.6 mg/kg s.c. 120 hours after administration, FIG. 6B
Description: 4. Effect of Subcutaneously Administered GIP Agonist Analogue in Morphine-Induced Acute Emetic Model
Male ferrets (4-month-old) were repeatedly used until 8-month-old. To evaluate the antiemetic effect, the GIP agonist analogues other than natural human GIP were subcutaneously administered 30 minutes before morphine administration. Natural human GIP was subcutaneously administered 5 minutes before morphine administration.
At the time of each of 4 hours, or 120 hours after administration, 0.6 mg/kg of morphine was subcutaneously administered. Up to 60 minutes after morphine administration, the condition of the ferrets was monitored to record the frequencies and time points of abdominal contraction motions, vomiting behaviors, licking with the tongue, and fidgety behavior occurring.

C57BL/6J mice [4] = test: Oral glucose tolerance test (2); conditions: 3 nmol/kg, s.c. 72 hours before glucose loading, 30 minutes after oral glucose, control group = 100
Description: Oral Glucose Tolerance Test (2)
An oral glucose tolerance test (OGTT) was carried out using C57BL/6J mice with a […].

ferrets [5] = test: Cisplatin-induced delayed vomiting model in ferrets; conditions: monitored 72 hours
Description: Up to 72 hours after cisplatin administration, the condition of the ferrets was monitored to record the frequencies and time points of abdominal contraction motions and vomiting behaviors occurring.

H-Tyr-Aib-Glu-Gly-Thr-Val-Val-Ser-Leu-Tyr-Ser-Ile-Aib-Leu-Asp-Arg-Gln-Ala-Gln-Aib-Glu-Phe-Val-Arg-Trp-Leu-Leu-Arg-Gly-Gly-Pro-Ser-Ser-Gly-Ala-Pro-Pro-Pro-Ser-Arg-NH2 [Compound 30]
Rate of increase in blood glucose level (%) 30 min (C57BL/6J mice [1]): 96%
Rate of increase in blood glucose level (%) 60 min (C57BL/6J mice [1]): 85%

H-Tyr-Aib-Glu-Gly-Thr-Val-Val-Ser-Leu-Tyr-Ser-Ile-Aib-Leu-Asp-Lys-Gln-Ala-Gln-Aib-Glu-Phe-Val-Lys-Trp-Leu-Leu-Lys-Gly-Gly-Pro-Ser-Ser-Gly-Ala-Pro-Pro-Pro-Ser-Lys-NH2 [Compound 6]
Frequency of vomiting (beagles; 150 nmol/kg s.c. 10 minutes before PYY-1119 (10 μg/kg, s.c.), FIG. 7A): 0 to 3 times
PYY-1119-induced taste aversion (male C57BL/6J mice; 1, 3, 10, 30 or 100 nmol/kg s.c. simultaneously with PYY-1119 (10 nmol/kg, s.c.), FIG. 1A): suppressed the PYY-1119-induced taste aversion in a dose-dependent manner
Cisplatin-induced acute emesis (frequency of emesis) (ferrets [2]; 167 nmol/kg/hour subcutaneously injected from 1 hour before cisplatin (10 mg/kg i.p.), monitored 8 hours, FIG. 2A): completely eliminated the acute emesis
Rate of increase in blood glucose level (%) 30 min (C57BL/6J mice [1]): 56%
Rate of increase in blood glucose level (%) 60 min (C57BL/6J mice [1]): 31%
Morphine-induced emesis (ferrets [3]; FIG. 3, FIG. 4): completely attenuated

H-MeTyr-Aib-Glu-Gly-Thr-Iva-Ile-Ser-Asp-Tyr-Ser-Ile-Aib-Lys(Eda-GGGGG-)-Asp-Arg-Aib-Ala-Gln-Aib-Asn-Phe-Val-Asn-Trp-Iva-Leu-Ala-Gln-Arg-Pro-Ser-Ser-Gly-Ala-Pro-Pro-Pro-Ser-NH2 [Compound 341]
Rate of increase in blood glucose level (%) 72 hr (C57BL/6J mice [4]): 47%
Cisplatin-induced delayed vomiting symptom (ferrets [5]; 144 μg/kg (30 nmol/kg) s.c. 34 hours after cisplatin 5 mg/kg i.p.): suppression of the vomiting symptom was noted
Ferrets in which the vomiting symptom was observed (ferrets [3]): none of the 4 ferrets
Vomiting symptom, morphine 120 hours after administration (ferrets [3]): none of the 4 ferrets

Methyl-Tyr-Aib-Glu-Gly-Thr-Phe-Ile-Ser-Asp-Tyr-Ser-Ile-Ala-Leu-Asp-Arg-Aib-His-Gln-Aib-Asn-Phe-Val-Asn-Trp-Iva-Leu-Ala-Gln-Arg-Pro-Ser-Ser-Gly-Ala-Pro-Pro-Pro-Ser-Arg-NH2 [Compound 117]
Frequency of vomiting (beagles; 10 nmol/kg s.c. 1 hour before PYY-1119 (10 μg/kg, s.c.), FIG. 7B): 0 to 3 times
Average suppression rate of the frequency of vomiting (beagles; 10 nmol/kg s.c. 1 hour before PYY-1119, versus medium group): 93%
PYY-1119-induced taste aversion (male C57BL/6J mice; 0.003, 0.01, 0.03, 0.1, 0.3 or 1 nmol/kg s.c. simultaneously with PYY-1119 (10 nmol/kg, s.c.), FIG. 1B): suppressed the PYY-1119-induced taste aversion in a dose-dependent manner
Cisplatin-induced acute vomiting symptom (ferrets [2]; 0.15, 0.5, 1.5, 5 and 15 μg/kg (0.03, 0.1, 0.3, 1 and 3 nmol/kg) s.c. 1 hour before cisplatin 10 mg/kg i.p., monitored 6 hours, FIG. 2B): suppression of the vomiting symptom was noted in a dose-dependent manner
Latency of the vomiting symptom (time from cisplatin administration to initial occurrence) (ferrets [5]; […] (0.3 nmol/kg) or 15 μg/kg (3 nmol/kg) s.c. 34 hours after cisplatin 5 mg/kg i.p., FIG. 2C): delayed
Rate of increase in blood glucose level (%) 30 min (C57BL/6J mice [1]): 51%
Rate of increase in blood glucose level (%) 60 min (C57BL/6J mice [1]): 16%
Morphine-induced emesis (ferrets [3]; FIG. 3, FIG. 4): suppressed the morphine-induced emesis

Methyl-Tyr-Aib-Glu-Gly-Thr-Phe-Ile-Ser-Asp-Tyr-Ser-Ile-Ala-Leu-Asp-Arg-Ile-Ala-Gln-Gln-Asp-Phe-Val-Asn-Trp-Leu-Leu-Ala-Gln-Arg-Pro-Ser-Ser-Gly-Ala-Pro-Pro-Pro-Ser-Arg-NH2 [Compound 59]
Rate of increase in blood glucose level (%) 30 min (C57BL/6J mice [1]): 41%
Rate of increase in blood glucose level (%) 60 min (C57BL/6J mice [1]): 23%

H-Tyr-Aib-Glu-Gly-Thr-Val-Val-Ser-Leu-Tyr-Ser-Ile-Aib-Leu-Asp-Lys-Gln-Ala-Gln-Aib-Glu-Phe-Val-Lys-Trp-Aib-Leu-Lys-Gly-Gly-Pro-Ser-Ser-Gly-Ala-Pro-Pro-Pro-Ser-Lys-NH2 [Compound 42]
Rate of increase in blood glucose level (%) 30 min (C57BL/6J mice [1]): 70%
Rate of increase in blood glucose level (%) 60 min (C57BL/6J mice [1]): 43%

H-MeTyr-Aib-Glu-Gly-Thr-Iva-Ile-Ser-Asp-Tyr-Ser-Ile-Aib-Leu-Asp-Arg-Lys(Oda-GGGGG-)-Ala-Gln-Aib-Asn-Phe-Val-Asn-Trp-Iva-Leu-Ala-Gln-Arg-Pro-Ser-Ser-Gly-Ala-Pro-Pro-Pro-Ser-NH2 [Compound 349]
Rate of increase in blood glucose level (%) 72 hr (C57BL/6J mice [4]): 69%
Ferrets in which the vomiting symptom was observed (ferrets [3]): none of the 4 ferrets
Vomiting symptom, morphine 120 hours after administration (ferrets [3]): suppression of the vomiting symptom was noted

Methyl-Tyr-Aib-Glu-Gly-Thr-Iva-Ile-Ser-Asp-Tyr-Ser-Ile-Ala-Leu-Asp-Arg-Aib-Ala-Gln-Aib-Asn-Phe-Val-Asn-Trp-Leu-Leu-Ala-Gln-Arg-Pro-Ser-Ser-Gly-Ala-Pro-Pro-Pro-Ser-Arg-NH2 [Compound 104]
Rate of increase in blood glucose level (%) 30 min (C57BL/6J mice [1]): 31%
Rate of increase in blood glucose level (%) 60 min (C57BL/6J mice [1]): 8%
Morphine-induced emesis (ferrets [3]; FIG. 3, FIG. 4): suppressed the morphine-induced emesis

Methyl-Tyr-Aib-Glu-Gly-Thr-Iva-Ile-Ser-Asp-Tyr-Ser-Ile-Aib-Leu-Asp-Arg-Aib-Ala-Gln-Aib-Asn-Phe-Val-Asn-Trp-Iva-Leu-Ala-Gln-Arg-Pro-Ser-Ser-Gly-Ala-Pro-Pro-Pro-Ser-Arg-NH2 [Compound 113]
Rate of increase in blood glucose level (%) 30 min (C57BL/6J mice [1]): 48%
Rate of increase in blood glucose level (%) 60 min (C57BL/6J mice [1]): 11%
Morphine-induced emesis (ferrets [3]; 0.1 nmol/kg, FIG. 5): suppressed the morphine-induced emesis
